Test results from patent US20150336996A1, “MANGANESE-BASED MAGNETIC RESONANCE CONTRAST AGENTS” (THE GENERAL HOSPITAL CORPORATION, priority 2013, published 2015).

How the values were obtained:
Assay type in all cases: physicochemical
[1] = UV spectrum as a function of pH (phenol deprotonation pKa); conditions: fit of UV absorbance vs pH
Experimental: To probe the speciation of the manganese complexes in solution, pH titrations of 1:1 Mn^2+:ligand were performed using a 1 N NaOH under N2 atmosphere (FIG. 21).
To determine the species that exists in these two pH ranges the UV spectrum as a function of pH was monitored (see FIGS. 22-24).

[2] = Stability of manganese complexes in buffers
Experimental: The stability of the manganese complexes were measured in different buffers using concentrations similar to those found in the blood plasma (1 mM phosphate buffer, 25 mM sodium bicarbonate buffer and 0.1 mM citrate buffer). A solution, 0.5 mM, of the manganese complex was incubated in the respective buffers at 37° C. (pH=7.4) and the species were then quantified on the LC-MS using the method as described earlier. The manganese complexes (0.5 mM) were also treated with EDTA (0.5 mM) in TRIS buffer (pH=7.4) and incubated at 37° C. for 1 hour. The species were then quantified on the LC-MS using the method as described earlier.

[3] = T1 relaxivity (r1) by inversion recovery on Bruker mq60 Minispec, 1.4 T, 37° C., TRIS buffer pH 7.4
Experimental: (§1) Liquid chromatography-electrospray mass spectrometry (LC-MS) was performed using an Agilent 1100 Series apparatus with an LC/MSD trap and Daly conversion dynode detector with UV detection at 220, 254 and 280 nm. The methods used on this system are as follows: (a) Luna C18 column (100×2 mm); eluent A: H2O/0.1% formic acid, B: MeCN/0.1% formic acid; gradient: 5% B to 95% B over 9 minutes; flow rate 0.8 mL/min (used for characterization of organic compounds), and (b) Kromasil C18 column (250×4.6 mm); eluent C: 95% MeCN/5% 10 mM ammonium acetate, D: 10 mM ammonium acetate; gradient 5% C to 8% C over 14 minutes; flow rate 0.8 ml/min (used for characterization of manganese complexes). Reversed-phase semipreparative purification was performed on a Rainin Dynamax HPLC system with UV detection at 254 nm using a Polaris C18 column. The method used for purification is as follows: The mobile phase A was 50 mM ammonium acetate buffer, pH 6.5 and mobile phase B was a mixture of 5% 50 mM ammonium acetate buffer, pH 6.5/95% MeCN. Starting from 5% B, the fraction of B increased to 8% over 23 minutes. The column was washed with 100% B for 2 minutes and then ramped to 5% B. The system was re-equilibrated at 5% B for 3 minutes. Relaxivity measurements were performed on a Bruker mq60 Minispec at 1.4 T and 37° C. Manganese concentrations were determined using an Agilent 7500a ICP-MS system. All samples were diluted with 0.1% Triton X-100 in 5% nitric acid containing 20 ppb of Lu (as internal standard). The ratio of Mn (54.94)/Lu(174.97) was used to quantify the manganese concentration. A linear calibration curve ranging from 0.1 ppb to 200 ppb was generated daily for the quantification. UV-Vis spectra were recorded on a SpectraMax M2 spectrophotometer using quartz cuvette with a 1 cm path length. Cyclic voltammetry of Mn^IIHBET, Mn^IIEDTA and Mn^IIIHBET was recorded using a Nuvant EZstat pro potentiostat in TRIS buffer (pH=7.4), containing 0.5M KNO3 as supporting electrolyte, at 100 mVs-1 scan rate. Glassy carbon was used as the working electrode, Ag/AgCl served as the reference electrode and Pt wire was used as the auxiliary electrode. The K4FeCN6/K3FeCN6 couple was used as the internal standard.
T1 was measured with an inversion recovery pulse sequence taking 10 inversion times. Relaxivity was determined from the slope of a plot of 1/T1 vs. concentration of in TRIS buffer, pH=7.4 at 37° C. The concentration of manganese in each stock solution was determined using ICP-MS.
All chemicals and solvents were purchased commercially and used without further purification. NMR spectra were recorded on either a 500 MHz or 400 MHz Varian spectrometers. Chemical shifts are reported in δ (ppm). For ^1H and ^13C NMR spectra, the residual solvent peaks were used as internal reference, except for the ^13C NMR of the ligand where tertiary-butanol was used as the internal reference. Liquid chromatography-electrospray mass spectrometry (LC-MS) was performed using an Agilent 1100 Series apparatus with an LC/MSD trap and Daly conversion dynode detector with UV detection at 220, 254 and 280 nm. The methods used on this system are as follows: (a) Luna C18 column (100×2 mm); eluent A: H2O/0.1% formic acid, B: MeCN/0.1% formic acid; gradient: 5% B to 95% B over 9 minutes; flow rate 0.8 mL/min (used for characterization of organic compounds), and (b) Kromasil C18 column (250×4.6 mm); eluent C: 95% MeCN/5% 10 mM ammonium acetate, D: 10 mM ammonium acetate; gradient 5% C to 8% C over 14 minutes; flow rate 0.8 ml/min (used for characterization of manganese complexes). Reversed-phase semipreparative purification was performed on the Rainin Dynamax HPLC system with UV detection at 254 nm using a Polaris C18 column. The method used for purification is as follows: The mobile phase A was 50 mM ammonium acetate buffer, pH 6.5 and mobile phase B was a mixture of 5% 50 mM ammonium acetate buffer, pH 6.5/95% MeCN. Starting from 5% B, the fraction of B increased to 8% over 23 minutes. […]

[4] = T1 measurement by MR imaging at 4.7 T (Bruker Biospec); conditions: room temperature, pH 7.4 TRIS buffer
Experimental: Right: relaxivities measured at room temperature at 4.7 T.
MR imaging was performed using a Bruker Biospec 4.7T system. Three samples (˜500 μL) were placed in a homemade sample holder and imaged using a volume coil. Acquisition matrix=64×256 for 0.234×0.312 mm^2 in-plane resolution; slice thickness=5 mm. T1-weighted images were obtained with a fast low angle shot (FLASH) gradient echo sequence: TR/TE/FA=20/5.44/40° with 8 averages. T1 was determined using a 2D rapid acquisition refocused echo (RARE) inversion recovery sequence: TR=3200 ms, TE=9.7 ms. Inversion times (TI): 5, 45, 85, 165, 325, 645, 1285, 1925 and 3205 ms. T1 was obtained from a nonlinear least square fit of the signal intensity (SI(t)) vs. TI curve where T1, SI(0) and a are adjustable parameters, equation S2.
SI(t)=SI(0)[1−α,e^TI/T1] (eq. S2)

[5] = Cyclic voltammetry of the Mn(III)/Mn(II) redox couple
Experimental: Potentials are vs. K4Fe(CN)6/K3Fe(CN)6; and in (b), a Cottrell plot of the Mn^2+/Mn^3+ couple—ia, (decreasing line) and ic (increasing line) vs. √v, where v=scan rate.
as §1

With O=C([O-])CN(CCN(CC(=O)[O-])Cc1ccccc1[O-])CC(=O)[O-].[Mn+2].[Na+].[Na+] [Compound 4, Na2[Mn^IIHBET]] as the compound, how does the “pKa for ionization of the phenol” value [1] read?
The value was 7.64.

What about the “stability in phosphate and carbonate buffers” value [2] of the same compound?
Its value is “stable”.

What about the T1 relaxivities ([3]; 1.4 T, Tris buffered saline pH 7.4, 37° C.) of the same compound?
Its T1 relaxivities is 2.76 mM⁻¹ s⁻¹.

And the “r1 (relaxivity of manganese complexes)” value ([3]; pH 7.4, 37° C., 1.4 Tesla)?
The value was 2.76 mM⁻¹ s⁻¹.

What about the “fold higher relaxivity of reduced Mn^II-HBET form vs Mn^III-HBET” value [4] of the same compound?
The value was 3.3 fold.

And the reversible oxidation peak ([5]; TRIS buffer pH 7.4, vs. K4Fe(CN)6/K3Fe(CN)6)?
The reversible oxidation peak was 0.356 V.

And the “Half-cell potential vs. normal hydrogen electrode (NHE)” value ([5]; pH 7.4, vs. NHE)?
The value was 379 mV.
